Earlier results on two molecules are cited in patent US11198893B2, “Method for producing omega 3 and omega 6 unsaturated fatty acid oxides” (Bizen Chemical Co., Ltd., priority 2016, dated 2021).

As for `CC/C=C\C[C@H](O)/C=C/C=C\C/C=C\C/C=C\C/C=C\CCC(=O)O` [17S-HDHA], in the series with obese mice, the “glucose tolerance and insulin resistance” value is “improve glucose tolerance and insulin resistance”; the inflammatory cytokine expression result is reported as “suppresses inflammatory cytokine expression”.
Consider `CC/C=C\C[C@H](O)/C=C/C=C\C=C\[C@@H](O)C/C=C\C/C=C\CCC(=O)O` [protectin DX], for which, in the series with liver glucose synthesis, the glycometabolism result is “action to promote glycometabolism” and the liver glucose synthesis entry was “action to suppress liver glucose synthesis”.
